Read-outs that look alike come from different tables or passages of the source.
Columns and labels:
[1] = target: T1, GAL4 DBD-CfEcR(DEF)/VP16AD-MmRXRE (Choristoneura fumiferana, UniProt O77240); assay: cell-based; conditions: for fold induction at 33 µM: CHO, read-out: Fold Induction Average, 13B3 Assay (33 μM); for 13B3 Rel Max FI: maximum fold induction at any concentration relative to that of GS-E ligand
T1 sequence (O77240 1-513): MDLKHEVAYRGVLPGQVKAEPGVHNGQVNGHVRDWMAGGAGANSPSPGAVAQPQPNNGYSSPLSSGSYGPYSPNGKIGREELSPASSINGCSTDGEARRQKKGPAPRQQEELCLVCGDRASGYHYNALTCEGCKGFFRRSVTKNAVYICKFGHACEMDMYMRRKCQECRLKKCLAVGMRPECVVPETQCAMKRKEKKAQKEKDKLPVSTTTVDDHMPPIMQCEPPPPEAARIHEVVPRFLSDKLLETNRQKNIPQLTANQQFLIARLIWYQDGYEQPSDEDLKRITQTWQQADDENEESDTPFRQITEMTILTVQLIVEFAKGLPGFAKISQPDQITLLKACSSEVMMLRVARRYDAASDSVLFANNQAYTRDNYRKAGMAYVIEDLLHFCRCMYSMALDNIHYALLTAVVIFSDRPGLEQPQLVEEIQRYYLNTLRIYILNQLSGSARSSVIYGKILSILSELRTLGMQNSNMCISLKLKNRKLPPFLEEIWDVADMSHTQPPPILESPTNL
Summary of the method: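 Stable CHO clone 13B3 expressing GAL4 DBD-CfEcR(DEF) and VP16AD-mouse RXR(DE) with GAL4 RE-luciferase reporter. Ligands tested at 8 concentrations, 33–0.01 μM; luciferase read 48 h after treatment. Fold induction versus DMSO; BC50 from three-parameter logistic fit.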

[2] = target: T2, GAL4 DBD (1-147)-CfEcR(DEF)/VP16AD-βRXREF-LmUSPEF (Choristoneura fumiferana, UniProt O77240); assay: 27-63 assay: luciferase reporter gene expression in stable CHO cell clone 27-63; conditions: for 27-63 Rel Max FI: maximum fold induction at any concentration relative to that of GS-E ligand; for CC50: read-out: 27-63 LC50, average, dose response, three-parameter logistic model; for fold induction at 33 µM: CHO, read-out: Fold Induction Average, 27-63 Assay (33 μM)
T2 sequence (O77240 191-513): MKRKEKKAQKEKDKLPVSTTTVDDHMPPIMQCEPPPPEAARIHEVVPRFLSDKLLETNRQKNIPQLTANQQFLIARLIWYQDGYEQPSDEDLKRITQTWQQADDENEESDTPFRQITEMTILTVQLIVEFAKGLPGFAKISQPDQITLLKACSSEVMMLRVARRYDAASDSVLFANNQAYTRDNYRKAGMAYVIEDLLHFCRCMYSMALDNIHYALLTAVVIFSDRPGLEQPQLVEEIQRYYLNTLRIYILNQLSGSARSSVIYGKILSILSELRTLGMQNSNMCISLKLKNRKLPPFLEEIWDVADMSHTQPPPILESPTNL
T2 sequence (P28702 296-455 partner limits assumed): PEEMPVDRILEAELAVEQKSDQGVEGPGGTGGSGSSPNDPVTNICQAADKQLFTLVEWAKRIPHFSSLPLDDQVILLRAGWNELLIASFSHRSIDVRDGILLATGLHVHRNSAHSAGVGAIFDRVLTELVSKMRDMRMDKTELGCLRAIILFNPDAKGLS
Summary of the method: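 CHO clone stably expressing GAL4 DBD-CfEcR(DEF) and VP16AD-HsRXRβ/LmUSP EF chimera plus a 5XGAL4RE-luciferase reporter; ligands given at 8 concentrations (33 μM to 0.01 μM), luminescence read 48 h after treatment. Fold induction versus DMSO cells; BC50 from three-parameter logistic fit.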

[3] = single dose 33 μM, RLU ligand treated / RLU DMSO treated cells

Structure (SMILES)	EC50 [1] [µM]	fold induction at 33 µM [1]	13B3 Rel Max FI [1]	27-63 Rel Max FI [2]	CC50 [2] [µM]	fold induction at 33 µM [2]	EC50 ([1]; read-out: 13B3 EC50, average, dose response, three-parameter logistic model) [µM]	Fold Induction Average, 13B3 Assay (33 μM) [1, 3]	Fold Induction Average, 13B3 Assay (33 μM) [1]	Fold Induction Average, 27-63 Assay (33 μM) [2, 3]
CCC(CC)(NC(=O)c1cccc(OC)c1C)C(=O)c1ccccc1OC [Example 37]	> 33	885	0.08	0.81	~18					
CCC(CC)(NC(=O)c1cccc(OC)c1C)C(=O)c1ccc(F)cc1 [Example 38]	> 33	18	0.00	0.00	> 33					
COc1ccccc1C(=O)C1(NC(=O)c2cccc(OC)c2C)CCCC1 [Example 40]	~15	2170	0.58	0.67	6.61					
COc1cccc(C(=O)NC2(C(=O)c3ccc(F)cc3)CCCC2)c1C [Example 42]	> 33	4	0.00	0.01	> 33					
COc1cccc(C(=O)NC2(C(=O)c3ccccc3C)CCCCC2)c1C [Example 44]	> 33	36	0.00	0.07	> 33					
COc1ccccc1C(=O)C1(NC(=O)c2cccc(OC)c2C)CCCCC1 [Example 45]	1.35	92900	0.67	0.71	1.03					
COc1ccc(C(=O)C2(NC(=O)c3cccc(OC)c3C)CCCCC2)cc1 [Example 46]	> 33	102	0.00	0.00	> 33	5				
CCC(CC)(NC(=O)c1cccc(OC)c1C)C(=O)c1cccc(C)c1 [Example 48]	≥ 33	12	0.00	0.11	> 33					
CCC(CC)(NC(=O)c1cccc(OC)c1C)C(=O)c1cccc(OC)c1 [Example 49]	> 33		0.00	0.00	> 33					
CCC(CC)(NC(=O)c1cccc(OC)c1C)C(=O)c1ccc(F)c(C)c1 [Example 50]	> 33	1	0.00	0.00	> 33					
CCC(CC)(NC(=O)c1cccc(OC)c1C)C(=O)c1cc(C)cc(C)c1 [Example 51]	~15	1380	0.64	0.54	6.23					
COc1cccc(C(=O)NC(C)(CC(C)C)C(=O)c2cccc(C)c2)c1C (centres unmarked) [Example 52]	> 33	114	0.00	0.04	~12					
COc1cccc(C(=O)C(C)(CC(C)C)NC(=O)c2cccc(OC)c2C)c1 (centres unmarked) [Example 53]	> 33		0.00	0.00	> 33					
COc1cccc(C(=O)NC(C)(CC(C)C)C(=O)c2cc(C)cc(C)c2)c1C (centres unmarked) [Example 55]	3.42	24700	0.21	0.62	3.85					
COc1cccc(C(=O)NC2(C(=O)c3ccc(F)cc3)CCCCC2)c1C [Example 60]	> 33	578	0.01	0.35	~9					
COc1cccc(C(=O)NC2(C(=O)c3cc(C)cc(C)c3)CCS(=O)(=O)CC2)c1C [Example 62]	> 33	3	0.00	0.04	~30	224				
COc1cccc(C(=O)NC(C)(C(=O)c2ccccc2C)C(C)C)c1C (centres unmarked) [Example 63]	> 33	14	0.03	0.68	27.2					
COc1ccc(C(=O)C2(NC(=O)c3cccc(OC)c3C)CCCCC2)c(OC)n1 [Example 64]	3.79	599	0.81	0.82	3.12					
COc1cc(C(=O)C2(NC(=O)c3cccc(OC)c3C)CCCC2)cc(OC)c1C [Example 65]			0.03	0.28	> 20		~20	19		
COc1cc(C(=O)C2(NC(=O)c3cccc(OC)c3C)CCCCC2)cc(OC)c1C [Example 66]	23.8	357	0.50	0.76	14.5					
COc1cccc(C(=O)NC2(C(=O)c3cc(F)c(F)c(OC)c3)CCCC2)c1C [Example 67]	17.6	555	0.50	0.77	6.59					
COc1cccc(C(=O)NC2(C(=O)c3cc(F)c(F)c(OC)c3)CCCCC2)c1C [Example 68]	8.79	819	1.00	0.98	3.7					
COc1cccc(C(=O)NC2(C(=O)c3ccccc3)CCCCC2)c1C [Example 69]	19.4	164	0.19	0.84	14.4					
COc1cccc(C(=O)C(C)(C)NC(=O)c2ccccc2OC)c1 [Example 117]									12	1
CCCCC(=O)C1(NC(=O)c2cccc(OC)c2C)CCCCC1 [Example 120]	14.9	367	0.27	0.65	9.05					

Reference: US8129355B2, “Ketone ligands for modulating the expression of exogenous genes via an ecdysone receptor complex” (priority 2002, dated 2012)
